According to patent US20180116993A1, “MODULATORS OF FARNESOID X RECEPTOR AND METHODS FOR THE USE THEREOF” (XIAMEN UNIVERSITY, priority 2015, published 2018):
Marks after values point to notes of the source that are not given here.

Experiments:
Format in all cases: in vivo, mouse
KK-Ay mice = test: Serum metabolic parameters in high-fat diet fed diabetic KK-Ay mice; conditions: serum, 20 mg/kg for 14 days
Description: KK-Ay mice (KK/Upj-Ay/J) are animal models with moderate obese and diabetes with insulin resistance. KK-Ay mice develop hyperglycemia, hyperinsulinemia, glucose intolerance and obesity as well as fat accumulation in liver by eight weeks of age. Pancreatic islets are hypertrophied and the β-cells are degranulated. db/db mice (BKS.Cg-Dockr+/+ Lepr^db/Jnju) are animal models of type II diabetes. They have the phenotype of insulin resistance. These model mice were used to detect the functions of our compounds on metabolic diseases.
(§1) 8-10 weeks age mice were maintained as example 4, and fed with high-fat diet (Research Diets, D12492). Mice were i.p. injected with compounds once daily for 7, 10, 11 or 14 days as indicated in each table. After the last compounds injection, mice were fasted for 6 hours with free access to water, and then sacrificed. Part of each liver was fixed in 4% paraformaldehyde for H&E staining, and other liver tissues were stored in liquid nitrogen for enzyme activity measurement and gene expression analysis by RT-PCR. The serums were collected to measure metabolic parameters, including serum glucose, insulin, cholesterol, free fatty acid (FFA) and triglyceride levels. Serum glucose was analyzed using glucose oxidase method (Applygen, Beijing, China). The blood glucose in Table 11 was measured with Berenger blood glucose test strips (B/BRAUN, German) from blood by cutting mice tail after the 6th injection and following fast for 16 hours. Serum cholesterol and FFA were analyzed using Cholesterol Assay Kit and FFA Assay Kit (Bioassay Systems, USA; Nanjing Jiancheng Bioengineering Institute, China; FFA ELISA, R&D, USA), respectively. Serum triglyceride was analyzed using Triglyceride Assay Kit (Bioassay Systems, USA; WAKO Chemicals Inc., Japan; Applygen, Beijing, China). Liver triglyceride was analyzed using Tissue triglyceride assay kit (Applygen, Beijing, China). Serum insulin levels were measured by the Ultra Sensitive Mouse Insulin ELISA Kit (Crystal Chem. Inc., USA). RNA was isolated using Tissue RNA kit (Omega Bio-Tek, GA). The first strand cDNA were obtained by TAKARA reverse transcription kit. Real-time quantitative PCR were performed on a CFX96™ Real-Time PCR Detection System (Bio-Rad) using SYBR Premix Ex Taq™ (TAKARA). Relative mRNA expression levels were normalized to actin levels.

[1] = tested on: genes related to metabolism in liver of KK-Ay mice; test: Liver mRNA levels of metabolism genes in KK-Ay mice (RT-PCR); conditions: 20 mg/kg for 14 days
Experimental: as §1
Triglyceride accumulation is due to the imbalance between triglyceride synthesis and clearance. One key gene controlling hepatic lipogenesis is SREBP-1c, whose up-regulation has been implicated in occurrence of hepatic steatosis. Liver-specific inhibition of ChREBP improves hepatic steatosis and insulin resistance in ob/ob mice (see e.g., Renaud (2006) Diabetes, 55(8):2159-70.). […] The gene expression pattern in KK-Ay mice liver further explained the underlying molecular mechanism for the reduction of lipid accumulation by the FXR-ligand compounds (Table 9).

[2] = tested on: collagen related genes in mice livers; test: Liver mRNA levels of collagen related genes in mice of Example 5 (RT-PCR); conditions: 10 mg/kg; for Relative mRNA level of α-SMA: vehicle 1 ± 0.1; for Relative mRNA level of α1(I) collagen: vehicle 1.1 ± 0.2; for Relative mRNA level of α2(I) collagen: vehicle 1.1 ± 0.1
Description: NAFLD with excessive fat accumulation in liver will affect the blood and oxygen supplies to liver and the metabolism of liver organ, resulting in amounts of cell swelling, inflammatory infiltration and necrosis in liver. […] The levels of various collagen contents are higher in patients with liver cirrhosis. Masson's staining is a three-color staining protocol used in histology. It is widely used to study hepatic pathologies (cirrhosis). It's an authoritative and classic method to detect the existence and extend of accumulation of the collagen fiber. Sirius Red staining is also presented as a method for collagen determination. In this example, the Masson's staining and […] were performed to detect the collagen deposit in high fat diet fed db/db mice in Example 5. The Masson's staining kit (Nanjing Jiancheng Engineering Institute, China) was used for the staining of liver sections in Example 5. The Sirius red staining is performed as standard procedure. RT-PCR was used detect the expression of collagen and related genes such as α1(I) collagen, α2(I)collagen, α-SMA and MCP-1 in mice livers.

[3] = vehicle = 1, listed as tschimganine
[4] = vehicle = 1, listed as feroline

SMILES	FFA (μM) (KK-Ay mice)	Glucose (mg/dl) (KK-Ay mice)	Triglyceride (mg/dl) (KK-Ay mice)	mRNA levels in liver, CHREBP ([1]; vehicle = 1)	mRNA levels in liver, FDFT1 ([1]; vehicle = 1)	mRNA levels in liver, G6PC ([1]; vehicle = 1)	mRNA levels in liver, GK ([1]; vehicle = 1)	mRNA levels in liver, SREBP1c ([1]; vehicle = 1)	mRNA levels in liver, CHREBP [1, 3]	mRNA levels in liver, SREBP1c [1, 3]	Relative mRNA level of α-SMA [2]	Relative mRNA level of α1(I) collagen [2]	Relative mRNA level of MCP-1 ([2]; vehicle 1.2 ± 0.2)	Cholesterol (mg/dl) (KK-Ay mice)	mRNA levels in liver, CHREBP [1, 4]	mRNA levels in liver, SREBP1c [1, 4]	Relative mRNA level of α2(I) collagen [2]
COc1cc(C(=O)O[C@H]2C[C@H]3CC[C@]2(C)C3(C)C)ccc1O [Tschimganine]	151 ± 14^a μM	123 ± 10^b mg/dl	134 ± 15^a mg/dl	0.43 ± 0.08^a	0.77 ± 0.06^a	0.59 ± 0.08^a	0.54 ± 0.07^a	0.38 ± 0.05^a	decreased	decreased	0.56 ± 0.12^a	0.6 ± 0.12^a	0.62 ± 0.13^a				
C/C1=C\CCC(C)(O)/C=C/C(C(C)C)C(OC(=O)c2ccc(O)cc2)C1 (stereo not drawn) [Feroline]	122 ± 30^b μM	177 ± 16^a mg/dl	136 ± 8^a mg/dl	0.4 ± 0.1^b	0.75 ± 0.1^a	0.66 ± 0.07^a	0.74 ± 0.11	0.3 ± 0.08^b			0.73 ± 0.06^a	0.37 ± 0.1^a		116 ± 10^a mg/dl	decreased	decreased	0.6 ± 0.06^a
CC1(C)[C@@H]2CC[C@@]1(C)[C@@H](OC(=O)c1ccc(O)cc1)C2 [Tschimgine]											0.47 ± 0.1^a	0.6 ± 0.13^a					0.75 ± 0.9^a
